Consider 21 molecules from ChEMBL document CHEMBL3045294, “Synthesis, anticonvulsant and toxicity screening of thiazolylthiadiazole derivatives” (Med Chem Res, 2011).

Activity calls are given as the source filed them. The calls are words filed in the database; no cut-off is given here.

Broadly, the TD50 is the dose at which the toxic effect under study appears in half of the subjects. A high value points to lower toxicity. In general, ED50 refers to the dose that gives a 50% effect, or the effect in half of the subjects.

Data set [1] is described as follows: (§1) Neurotoxicity in ip dosed Mus musculus albino (mouse) after 0.5 hr rotorod test. Particulars: albino, in vivo. Type of data set: toxicity, organism-based. (In general: The rotarod test checks motor coordination on a turning rod.)
Data set [2] concerns Mus musculus. As to the kind of experiment: Anticonvulsant activity in ip dosed Mus musculus albino (mouse) assessed as protection against subcutaneous pentylenetetrazol-induced seizures. Type of data set: functional.
The nature of data set [3]: (§2) Neurotoxicity in ip dosed Mus musculus albino (mouse) after 4 hr rotorod test. The data set is classed as toxicity, organism-based. Particulars: albino, in vivo.
The species named for data set [4] is Mus musculus. As to the kind of experiment: Protective index, ratio of TD50 for Mus musculus albino (mouse) to ED50 for Mus musculus albino (mouse) by maximal electroshock-induced seizures test. The data set is classed as functional.
Data set [5] has as its system Mus musculus. Kind of data set: Anticonvulsant activity in ip dosed Mus musculus albino (mouse) assessed as protection against subcutaneous pentylenetetrazol-induced seizures after 0.5 hr. The data set is classed as functional. Particulars: read-out: MED.
Data set [6] concerns Mus musculus. Kind of data set: Anticonvulsant activity in Mus musculus albino (mouse) assessed as protection against maximal electroshock-induced seizures at 300 mg/kg, ip after 0.5 hr. Type of data set: functional, organism-based. On the set-up: dose 300 mg/kg. Background: Protection in the maximal electroshock model is a classic sign of anticonvulsant action.
The test system of data set [7] is Mus musculus. Kind of data set: Anticonvulsant activity in ip dosed Mus musculus albino (mouse) assessed as protection against maximal electroshock-induced seizures. The data set is classed as functional.
Data set [8] deals with Mus musculus. Kind of data set: Anticonvulsant activity in ip dosed Mus musculus albino (mouse) assessed as protection against subcutaneous pentylenetetrazol-induced seizures after 4 hr. The conditions noted are these: read-out: MED. Type of data set: functional.
In data set [9] the test system is Mus musculus. As to the kind of experiment: Protective index, ratio of TD50 for Mus musculus albino (mouse) to ED50 for Mus musculus albino (mouse) by subcutaneous pentylenetetrazol-induced seizures test. The data set is classed as functional.
Data set [10] concerns Mus musculus. As to the kind of experiment: Anticonvulsant activity in Mus musculus albino (mouse) assessed as protection against maximal electroshock-induced seizures at 300 mg/kg, ip after 4 hr. Type of data set: functional, organism-based. On the set-up: dose 300 mg/kg.
Data set [11] has as its system Mus musculus. Described as §1. Type of data set: toxicity, organism-based. Particulars: in vivo, 0.5 h.
The test system of data set [12] is Mus musculus. The data set is described as §2. The data set is classed as toxicity, organism-based. Particulars: in vivo, 4 h.
For data set [13], the system named is Mus musculus. As to the kind of experiment: Anticonvulsant activity in Mus musculus albino (mouse) assessed as protection against subcutaneous pentylenetetrazol-induced seizures at 300 mg/kg, ip after 0.5 hr. Type of data set: functional, organism-based. On the set-up: dose 300 mg/kg.
Data set [14] concerns Mus musculus. Kind of data set: Anticonvulsant activity in Mus musculus albino (mouse) assessed as protection against subcutaneous pentylenetetrazol-induced seizures at 300 mg/kg, ip after 4 hr. Further details: dose 300 mg/kg. The data set is classed as functional, organism-based.
In data set [15] the test system is Mus musculus. Kind of data set: Anticonvulsant activity in ip dosed Mus musculus albino (mouse) assessed as protection against maximal electroshock-induced seizures after 4 hr. Particulars: read-out: MED. Type of data set: functional.
Data set [16] deals with Mus musculus. Kind of data set: Anticonvulsant activity in ip dosed Mus musculus albino (mouse) assessed as protection against maximal electroshock-induced seizures after 0.5 hr. Type of data set: functional. The conditions noted are these: read-out: MED.

`CCC1(C)CC(=O)NC1=O` (centres undefined) [ETHOSUXIMIDE] showed an MTD at 0.5 h in data set [1] of 300 mg/kg. The TD50 at 0.5 h in [1] turned out to be 71.6 mg/kg. Moreover, the values for the 50% effective dose (ED50) in data set [2] and in data set [7] were more than 100 mg/kg and 8.8 mg/kg, respectively. The MTD at 4 h in data set [3] came out at 300 mg/kg. Further, the entries for the “Ratio TD50/ED50” value in data set [4] and in [9] were 8.1 and less than 0.2, respectively. Further, the minimal effective dose in data set [5] is 100 mg/kg; in data set [8], 300 mg/kg. Also, the outcome in data set [6] and in data set [10] was inactive.

Regarding `O=C1NC(=O)C(c2ccccc2)(c2ccccc2)N1` [PHENYTOIN], the MTC in [11] and in data set [12] was 100 mg/kg in each case. Also, the ED50 in data set [2] was more than 300 mg/kg. Moreover, the result in data set [13] and in data set [14] was inactive. The minimal effective dose in data set [15] and in data set [16] was 30 mg/kg in each case.

Regarding `Cc1ccc(Nc2nnc(Nc3nc(-c4ccc(Br)cc4)cs3)s2)cc1`, the MTC in [11] and in data set [12] was 300 mg/kg in each case. Besides, the minimal effective dose turned out to be 300 mg/kg in data set [5], 100 mg/kg in [15], 100 mg/kg in data set [16] and 300 mg/kg in [8].

In data set [11], `COc1ccc(Nc2nnc(Nc3nc(-c4ccccc4)cs3)s2)cc1` showed an MTC of 300 mg/kg. This molecule yielded an MTD at 4 h in [3] of 300 mg/kg. Besides, the outcome in [13] was inactive. In addition, the values for the minimal effective dose in data set [15], in [16] and in data set [8] were 100 mg/kg, 100 mg/kg and 300 mg/kg, respectively.

With `COc1ccc(Nc2nnc(Nc3nc(-c4ccc(Cl)cc4)cs3)s2)cc1`, the MTD at 0.5 h in data set [1] was 300 mg/kg. Besides, the MTD at 4 h in data set [3] is 300 mg/kg. The minimal effective dose in [5] is 100 mg/kg; in data set [15], 300 mg/kg; in [16] it was 100 mg/kg; in data set [8], 300 mg/kg.

For `COc1ccccc1Nc1nnc(Nc2nc(-c3ccc(Br)cc3)cs2)s1`, the MTC in [11] is 300 mg/kg; in data set [12], 100 mg/kg. In addition, the outcome in data set [13] and in data set [10] was inactive. The minimal effective dose in data set [16] and in data set [8] was 300 mg/kg each time.

In [1], `Clc1ccc(-c2csc(Nc3nnc(Nc4ccccc4)s3)n2)cc1` yielded an MTD at 0.5 h of 300 mg/kg. This molecule returned an MTD at 4 h in data set [3] of 300 mg/kg. In addition, the result in [13], in data set [14] and in [6] was inactive. Further, the minimal effective dose in [15] worked out at 300 mg/kg.

The molecule `Cc1ccccc1Nc1nnc(Nc2nc(-c3ccc(Br)cc3)cs2)s1` gave an MTC in data set [11] of 100 mg/kg. The molecule further registered an MTD at 4 h in [3] of 300 mg/kg. For the same molecule, in [13], the result was inactive. Further, the minimal effective dose in [15], in [16] and in data set [8] was 300 mg/kg in each case.

As for `CCC1(c2ccccc2)C(=O)NC(=O)NC1=O` [PHENOBARBITAL], the MTC in [11] was found to be 100 mg/kg; in [12], 300 mg/kg. For the same molecule, the ED50 in [2] was 13.2 mg/kg; in data set [7] it was 21.8 mg/kg. The result in data set [13] and in [14] was inactive. Moreover, the minimal effective dose in data set [15] is 30 mg/kg; in data set [16] it was 100 mg/kg.

Take `COc1ccccc1Nc1nnc(Nc2nc(-c3ccc(Cl)cc3)cs2)s1`: the MTC in data set [11] and in data set [12] was 300 mg/kg each time. Moreover, the outcome in [13] and in [6] was inactive. In addition, the minimal effective dose in [15] came to 300 mg/kg; in [8], 100 mg/kg.

As for `CCCC(CCC)C(=O)O` [VALPROIC ACID], the median effective dose (ED50) in data set [2] is 149 mg/kg.

With `Brc1ccc(-c2csc(Nc3nnc(Nc4ccccc4)s3)n2)cc1`, the MTC in data set [11] and in data set [12] was 300 mg/kg in each case. Also, the outcome in data set [13], in data set [14] and in [10] was inactive. Also, the minimal effective dose in [16] amounted to 300 mg/kg.

In data set [1], `Cc1ccccc1Nc1nnc(Nc2nc(-c3ccc(Cl)cc3)cs2)s1` yielded an MTD at 0.5 h of 300 mg/kg. In addition, the MTD at 4 h in data set [3] turned out to be 300 mg/kg. The result in data set [13] and in data set [14] was inactive. Further, the minimal effective dose in data set [15] and in data set [16] was 300 mg/kg in each case.

Molecule `O=[N+]([O-])c1ccc(-c2csc(Nc3nnc(Nc4ccccc4)s3)n2)cc1` gave an MTC in data set [11] of 100 mg/kg. For the same molecule, in data set [3], the MTD at 4 h amounted to 300 mg/kg. Also, the result in data set [13], in data set [14] and in [10] was inactive. Moreover, in data set [16], the minimal effective dose came out at 100 mg/kg.

Turning to `Cc1ccc(Nc2nnc(Nc3nc(-c4ccccc4)cs3)s2)cc1`, in data set [1], the MTD at 0.5 h was determined as 300 mg/kg. Further, the MTD at 4 h in [3] stood at 300 mg/kg. Moreover, the outcome in data set [14] was inactive. The results for the minimal effective dose in data set [5], in data set [15] and in [16] were 300 mg/kg, 100 mg/kg and 100 mg/kg, respectively.

As to `Cc1ccc(Nc2nnc(Nc3nc(-c4ccc(Cl)cc4)cs3)s2)cc1`, the MTD at 0.5 h in data set [1] was 300 mg/kg. Moreover, the MTD at 4 h in data set [3] was 300 mg/kg. Also, the outcome in [13] was inactive. Moreover, the minimal effective dose in [15] amounted to 100 mg/kg; in [16], 300 mg/kg; in data set [8], 300 mg/kg.

On to `Cc1ccccc1Nc1nnc(Nc2nc(-c3ccccc3)cs2)s1`, for which the MTD at 0.5 h in [1] worked out at 300 mg/kg. In data set [12], this molecule showed an MTC of 300 mg/kg. Besides, the outcome in data set [13], in data set [14] and in data set [10] was inactive. Moreover, the minimal effective dose in data set [16] worked out at 300 mg/kg.

On to `Cc1ccccc1Nc1nnc(Nc2nc(-c3ccc([N+](=O)[O-])cc3)cs2)s1`, for which the MTC in data set [11] amounted to 100 mg/kg; in data set [12], 300 mg/kg. For the same molecule, in data set [13], the outcome was inactive. The minimal effective dose in data set [15] is 100 mg/kg; in [16], 100 mg/kg; in [8] it was 300 mg/kg.

With `COc1ccccc1Nc1nnc(Nc2nc(-c3ccc([N+](=O)[O-])cc3)cs2)s1`, in data set [11], the MTC amounted to 300 mg/kg. For the same molecule, the MTD at 4 h in data set [3] turned out to be 300 mg/kg. Besides, the outcome in data set [13] was inactive. The minimal effective dose in data set [15], in [16] and in [8] was 300 mg/kg each time.

Take `c1ccc(Nc2nnc(Nc3nc(-c4ccccc4)cs3)s2)cc1`: in data set [1], the MTD at 0.5 h worked out at 300 mg/kg. In data set [12], this molecule registered an MTC of 300 mg/kg. For the same molecule, the outcome in data set [13] and in data set [10] was inactive. Further, the minimal effective dose worked out at 300 mg/kg in [16] and 100 mg/kg in data set [8].

On to `COc1ccccc1Nc1nnc(Nc2nc(-c3ccccc3)cs2)s1`, for which the MTD at 0.5 h in data set [1] came to 300 mg/kg. Further, the MTD at 4 h in [3] was found to be 300 mg/kg. In addition, the minimal effective dose in data set [5] was 100 mg/kg; in [15], 300 mg/kg; in data set [16], 100 mg/kg; in data set [8] it was 300 mg/kg.
